Measured values: ChEMBL document CHEMBL3596180, “Evaluation of histone deacetylase inhibitors (HDACi) as therapeutic leads for human African trypanosomiasis (HAT)” (Bioorg Med Chem, 2015)
Activity calls are given as the source filed them. No cut-off for these calls is given here.

Experiments:
[1] = system: Trypanosoma brucei brucei; experiment: Antitrypanosomal activity against Trypanosoma brucei brucei 427 assessed as inhibition of parasite proliferation measured as ATP levels after 48 hrs by luciferase-based assay; type: functional, organism-based; details: Trypanosoma brucei, 427, 48 h
[2] = Cmax in po dosed human measured under phase 1 trial; type: ADME, organism-based; set-up: route oral; details: in vivo
[3] = AUC in po dosed human measured under phase 1 trial; type: ADME, organism-based; details: in vivo
[4] = Tmax in po dosed human measured under phase 1 trial; type: ADME, organism-based; details: in vivo
[5] = Half-life in po dosed human measured under phase 1 trial; type: ADME, organism-based; details: in vivo
[6] = system: Trypanosoma brucei brucei; experiment: Trypanocidal activity against Trypanosoma brucei brucei assessed as killing of parasite densities of 10^4 to 10^6 cells/ml at 2.2 uM by clonal dilution method; type: functional, organism-based
[7] = Cmax in human; type: ADME, organism-based; details: in vivo
Homo sapiens = organism: Homo sapiens; experiment: Half-life in human; type: ADME, organism-based; details: in vivo
[8] = Cmax in iv dosed human measured under phase 1 trial; type: ADME, organism-based; set-up: route intravenous; details: in vivo
[9] = Cmax in po dosed human measured under phase 2 trial; type: ADME, organism-based; set-up: route oral; details: in vivo
[10] = AUC in iv dosed human measured under phase 1 trial; type: ADME, organism-based; details: in vivo
[11] = AUC in po dosed human measured under phase 2 trial; type: ADME, organism-based; details: in vivo
[12] = Tmax in iv dosed human measured under phase 1 trial; type: ADME, organism-based; details: in vivo
[13] = Tmax in po dosed human measured under phase 2 trial; type: ADME, organism-based; details: in vivo
[14] = Half-life in iv dosed human measured under phase 1 trial; type: ADME, organism-based; details: in vivo
[15] = Half-life in po dosed human measured under phase 2 trial; type: ADME, organism-based; details: in vivo
[16] = Cmax in iv dosed human measured under phase 1/2 trial; type: ADME, organism-based; set-up: route intravenous; details: in vivo
[17] = AUC in iv dosed human measured under phase 1/2 trial; type: ADME, organism-based; details: in vivo
[18] = Tmax in iv dosed human measured under phase 1/2 trial; type: ADME, organism-based; details: in vivo
[19] = Half-life in iv dosed human measured under phase 1/2 trial; type: ADME, organism-based; details: in vivo
[20] = system: Trypanosoma brucei brucei; experiment: Trypanocidal activity against Trypanosoma brucei brucei assessed as killing of parasite densities of 10^4 to 10^6 cells/ml at 2 uM after […] by clonal dilution method; type: functional, organism-based
[21] = system: Trypanosoma brucei brucei; experiment: Trypanocidal activity against Trypanosoma brucei brucei assessed as killing of parasite densities of 10^4 to 10^6 cells/ml at 180 uM after 4 hrs by clonal dilution method; type: functional, organism-based
Histone deacetylase 5 = Histone deacetylase 5 (Homo sapiens, UniProt Q9UQL6); experiment: Inhibition of human HDAC5
Histone deacetylase 9 = Histone deacetylase 9 (Homo sapiens, UniProt Q9UKV0); experiment: Inhibition of human HDAC9
[22] = molecular target: T1, Polyamine deacetylase HDAC10 (Homo sapiens, UniProt Q969S8); experiment: Inhibition of human HDAC10
T1 sequence (Q969S8 whole entry): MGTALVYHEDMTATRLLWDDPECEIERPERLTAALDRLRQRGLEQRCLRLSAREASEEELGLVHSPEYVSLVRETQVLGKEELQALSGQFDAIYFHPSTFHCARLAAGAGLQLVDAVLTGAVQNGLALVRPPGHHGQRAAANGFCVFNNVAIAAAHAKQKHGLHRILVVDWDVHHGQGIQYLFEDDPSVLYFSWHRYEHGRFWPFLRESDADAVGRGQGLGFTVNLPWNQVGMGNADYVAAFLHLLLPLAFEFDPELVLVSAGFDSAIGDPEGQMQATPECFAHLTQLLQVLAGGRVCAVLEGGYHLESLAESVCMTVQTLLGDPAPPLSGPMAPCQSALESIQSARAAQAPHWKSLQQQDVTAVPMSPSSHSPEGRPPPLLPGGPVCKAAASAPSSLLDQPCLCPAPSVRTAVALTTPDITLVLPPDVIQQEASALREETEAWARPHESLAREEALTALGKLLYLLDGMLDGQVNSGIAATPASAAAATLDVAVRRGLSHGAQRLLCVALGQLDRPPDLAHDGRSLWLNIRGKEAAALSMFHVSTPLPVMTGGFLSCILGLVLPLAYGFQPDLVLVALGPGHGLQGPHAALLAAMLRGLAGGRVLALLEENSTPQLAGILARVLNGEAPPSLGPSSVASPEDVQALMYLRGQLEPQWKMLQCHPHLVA

Histone deacetylase 11 = molecular target: T2, Histone deacetylase 11 (Homo sapiens, UniProt Q96DB2); experiment: Inhibition of human HDAC11
T2 sequence (Q96DB2 whole entry): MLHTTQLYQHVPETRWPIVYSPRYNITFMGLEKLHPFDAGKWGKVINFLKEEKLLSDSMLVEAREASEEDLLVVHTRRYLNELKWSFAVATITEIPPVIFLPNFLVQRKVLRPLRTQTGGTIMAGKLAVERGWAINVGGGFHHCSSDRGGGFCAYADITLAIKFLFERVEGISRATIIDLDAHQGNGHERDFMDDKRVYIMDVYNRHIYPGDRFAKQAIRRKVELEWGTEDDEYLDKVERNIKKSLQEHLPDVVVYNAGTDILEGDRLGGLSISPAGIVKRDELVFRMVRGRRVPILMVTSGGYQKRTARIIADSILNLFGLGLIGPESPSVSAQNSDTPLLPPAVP

Histone deacetylase 1 = Histone deacetylase 1 (Homo sapiens, UniProt Q13547); experiment: Inhibition of human HDAC1
Histone deacetylase 2 = Histone deacetylase 2 (Homo sapiens, UniProt Q92769); experiment: Inhibition of human HDAC2
Histone deacetylase 7 = molecular target: T3, Histone deacetylase 7 (Homo sapiens, UniProt Q8WUI4); experiment: Inhibition of human HDAC7
T3 sequence (Q8WUI4 whole entry): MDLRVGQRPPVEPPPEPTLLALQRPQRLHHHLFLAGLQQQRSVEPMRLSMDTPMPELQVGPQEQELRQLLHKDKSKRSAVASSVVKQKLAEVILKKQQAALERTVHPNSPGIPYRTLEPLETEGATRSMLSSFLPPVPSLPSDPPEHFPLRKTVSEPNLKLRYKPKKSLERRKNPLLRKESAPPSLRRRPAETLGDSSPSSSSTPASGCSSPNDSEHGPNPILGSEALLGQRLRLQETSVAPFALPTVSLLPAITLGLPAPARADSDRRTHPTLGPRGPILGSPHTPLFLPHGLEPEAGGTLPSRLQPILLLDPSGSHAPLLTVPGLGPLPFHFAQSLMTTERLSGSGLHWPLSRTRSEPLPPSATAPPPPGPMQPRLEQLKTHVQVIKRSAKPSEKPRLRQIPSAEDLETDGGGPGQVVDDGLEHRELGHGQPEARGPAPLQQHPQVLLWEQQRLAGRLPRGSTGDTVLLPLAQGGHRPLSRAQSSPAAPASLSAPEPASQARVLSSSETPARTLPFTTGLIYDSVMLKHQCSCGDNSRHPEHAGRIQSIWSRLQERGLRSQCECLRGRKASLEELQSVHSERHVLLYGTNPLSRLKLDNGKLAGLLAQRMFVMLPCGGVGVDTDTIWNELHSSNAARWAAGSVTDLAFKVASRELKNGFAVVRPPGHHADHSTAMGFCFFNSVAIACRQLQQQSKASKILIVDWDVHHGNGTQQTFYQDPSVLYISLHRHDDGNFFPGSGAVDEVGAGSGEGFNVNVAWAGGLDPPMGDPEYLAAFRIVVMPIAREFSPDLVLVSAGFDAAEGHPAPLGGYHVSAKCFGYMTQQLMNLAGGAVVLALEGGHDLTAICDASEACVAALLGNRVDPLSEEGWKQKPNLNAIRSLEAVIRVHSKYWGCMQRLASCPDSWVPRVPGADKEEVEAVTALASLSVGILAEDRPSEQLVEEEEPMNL

Histone deacetylase 5, sequence (Q9UQL6 whole entry): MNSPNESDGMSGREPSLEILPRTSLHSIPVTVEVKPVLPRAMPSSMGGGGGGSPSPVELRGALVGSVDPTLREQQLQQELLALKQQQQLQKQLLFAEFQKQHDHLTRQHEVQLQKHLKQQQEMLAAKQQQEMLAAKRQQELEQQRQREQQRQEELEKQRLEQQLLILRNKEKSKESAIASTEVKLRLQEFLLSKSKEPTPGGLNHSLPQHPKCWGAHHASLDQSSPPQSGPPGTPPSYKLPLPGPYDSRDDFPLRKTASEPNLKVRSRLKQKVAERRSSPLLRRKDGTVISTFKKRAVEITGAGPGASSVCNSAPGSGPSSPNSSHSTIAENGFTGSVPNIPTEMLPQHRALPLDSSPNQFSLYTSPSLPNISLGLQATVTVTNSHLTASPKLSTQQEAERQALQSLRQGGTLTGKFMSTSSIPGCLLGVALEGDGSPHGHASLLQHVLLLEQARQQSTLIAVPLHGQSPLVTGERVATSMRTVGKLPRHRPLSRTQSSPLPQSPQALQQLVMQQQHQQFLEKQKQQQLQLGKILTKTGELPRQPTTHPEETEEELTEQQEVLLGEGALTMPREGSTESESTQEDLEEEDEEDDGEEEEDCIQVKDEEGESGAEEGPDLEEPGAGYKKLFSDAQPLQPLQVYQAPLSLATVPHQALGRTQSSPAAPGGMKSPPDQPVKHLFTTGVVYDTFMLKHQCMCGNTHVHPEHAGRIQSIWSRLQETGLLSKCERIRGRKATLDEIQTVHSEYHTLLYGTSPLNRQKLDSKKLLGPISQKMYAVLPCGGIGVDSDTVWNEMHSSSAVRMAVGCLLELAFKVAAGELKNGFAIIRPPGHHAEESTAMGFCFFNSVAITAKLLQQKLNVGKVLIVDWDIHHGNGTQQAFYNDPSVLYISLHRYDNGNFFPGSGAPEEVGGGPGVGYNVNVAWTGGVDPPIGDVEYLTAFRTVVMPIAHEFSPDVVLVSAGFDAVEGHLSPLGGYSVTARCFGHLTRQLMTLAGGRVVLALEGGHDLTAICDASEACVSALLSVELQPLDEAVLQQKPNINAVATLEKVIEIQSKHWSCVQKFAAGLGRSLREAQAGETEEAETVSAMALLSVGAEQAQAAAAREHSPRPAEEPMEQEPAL
Histone deacetylase 1, sequence (Q13547 whole entry): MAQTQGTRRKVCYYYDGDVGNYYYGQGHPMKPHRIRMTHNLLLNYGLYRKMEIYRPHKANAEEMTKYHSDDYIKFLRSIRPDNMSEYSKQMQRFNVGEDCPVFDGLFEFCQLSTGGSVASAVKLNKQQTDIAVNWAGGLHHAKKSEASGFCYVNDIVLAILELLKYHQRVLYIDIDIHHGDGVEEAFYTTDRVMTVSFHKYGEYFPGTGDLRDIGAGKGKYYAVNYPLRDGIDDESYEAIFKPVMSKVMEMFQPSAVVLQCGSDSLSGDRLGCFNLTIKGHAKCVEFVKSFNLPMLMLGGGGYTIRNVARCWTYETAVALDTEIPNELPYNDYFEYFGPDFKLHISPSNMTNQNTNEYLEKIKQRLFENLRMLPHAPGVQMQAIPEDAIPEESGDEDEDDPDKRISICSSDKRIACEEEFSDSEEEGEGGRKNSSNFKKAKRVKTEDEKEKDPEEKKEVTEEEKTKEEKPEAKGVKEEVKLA
Histone deacetylase 9, sequence (Q9UKV0 whole entry): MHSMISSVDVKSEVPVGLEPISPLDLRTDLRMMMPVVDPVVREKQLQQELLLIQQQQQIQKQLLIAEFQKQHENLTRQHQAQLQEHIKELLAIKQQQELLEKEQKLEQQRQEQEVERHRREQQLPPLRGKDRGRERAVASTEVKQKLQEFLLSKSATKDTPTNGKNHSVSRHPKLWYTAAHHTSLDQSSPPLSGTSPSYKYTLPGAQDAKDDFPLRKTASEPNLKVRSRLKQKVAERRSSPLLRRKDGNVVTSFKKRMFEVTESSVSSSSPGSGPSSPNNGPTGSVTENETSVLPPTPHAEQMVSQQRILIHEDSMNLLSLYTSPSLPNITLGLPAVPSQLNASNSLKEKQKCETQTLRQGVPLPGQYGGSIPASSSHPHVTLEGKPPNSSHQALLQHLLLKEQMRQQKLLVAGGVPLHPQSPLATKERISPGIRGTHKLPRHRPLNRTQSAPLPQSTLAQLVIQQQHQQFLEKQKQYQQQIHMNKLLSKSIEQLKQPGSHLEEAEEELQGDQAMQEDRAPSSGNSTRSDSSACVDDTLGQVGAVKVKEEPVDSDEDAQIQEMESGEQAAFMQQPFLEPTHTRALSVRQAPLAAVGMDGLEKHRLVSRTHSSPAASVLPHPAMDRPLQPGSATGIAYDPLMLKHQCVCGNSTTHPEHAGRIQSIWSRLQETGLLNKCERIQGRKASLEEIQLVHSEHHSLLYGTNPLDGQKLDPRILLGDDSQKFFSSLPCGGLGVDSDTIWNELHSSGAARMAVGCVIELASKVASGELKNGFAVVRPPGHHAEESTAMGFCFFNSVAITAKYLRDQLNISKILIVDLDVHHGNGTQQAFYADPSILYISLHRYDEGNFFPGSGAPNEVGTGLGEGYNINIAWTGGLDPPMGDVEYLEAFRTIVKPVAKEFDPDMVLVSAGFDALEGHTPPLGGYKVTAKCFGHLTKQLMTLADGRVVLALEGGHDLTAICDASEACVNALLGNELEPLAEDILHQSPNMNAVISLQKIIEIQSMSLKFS
Histone deacetylase 2, sequence (Q92769 whole entry): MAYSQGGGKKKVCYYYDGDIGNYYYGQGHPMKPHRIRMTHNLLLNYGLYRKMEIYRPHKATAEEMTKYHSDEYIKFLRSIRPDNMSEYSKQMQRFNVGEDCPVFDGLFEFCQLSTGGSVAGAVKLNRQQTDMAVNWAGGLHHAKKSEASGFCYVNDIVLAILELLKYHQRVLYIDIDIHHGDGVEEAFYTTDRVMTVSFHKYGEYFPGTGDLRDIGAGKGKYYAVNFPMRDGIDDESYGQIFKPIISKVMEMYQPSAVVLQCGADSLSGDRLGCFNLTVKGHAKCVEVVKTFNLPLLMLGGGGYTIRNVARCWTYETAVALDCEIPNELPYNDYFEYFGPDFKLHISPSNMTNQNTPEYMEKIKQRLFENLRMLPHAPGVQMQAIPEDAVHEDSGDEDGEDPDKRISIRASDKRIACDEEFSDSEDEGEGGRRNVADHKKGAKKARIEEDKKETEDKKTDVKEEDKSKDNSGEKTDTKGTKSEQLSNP

## CCN(CC)Cc1ccc2cc(COC(=O)Nc3ccc(C(=O)NO)cc3)ccc2c1 [GIVINOSTAT]
[1]
  EC50: 10900 nM
[2]
  Cmax: 208 nM
[3]
  AUC: 671 ng·h/mL
[4]
  Tmax: 2.1 h
[5]
  half-life: 6 h

## O=C(/C=C\c1cccc(C(=O)NO)c1)NO
[1]
  EC50: 7000 nM

## N=C(N)c1ccc(OCCCCCOc2ccc(C(=N)N)cc2)cc1 [PENTAMIDINE]
[6]
  Activity: Active
[7]
  Cmax: 900 nM
Homo sapiens
  t1/2: 265 h

## CN1CCc2c(c3ccccc3n2Cc2ccc(C(=O)NO)cc2)C1 [TUBASTATIN A]
[1]
  EC50: 2750 nM

## Cc1[nH]c2ccccc2c1CCNCc1ccc(/C=C/C(=O)NO)cc1 [PANOBINOSTAT]
[1]
  EC50: 1580 nM
  EC90: 4860 nM
[2]
  Cmax: 31 nM
[8]
  Cmax: 1410 nM
[9]
  Cmax: 191 nM
[3]
  AUC: 91.3 ng·h/mL
[10]
  AUC: 605 ng·h/mL
[11]
  AUC: 356 ng·h/mL
[4]
  Tmax: 1.5 h
[12]
  Tmax: 0.5 h
[13]
  Tmax: 1 h
[5]
  half-life: 12.8 h
[14]
  half-life: 16 h
[15]
  half-life: 15 h

## O=C(Nc1ccccc1-c1cn2c(CN3CCNCC3)csc2n1)c1cnc2ccccc2n1
[1]
  EC50: 892 nM

## O=C(/C=C/c1cccc(S(=O)(=O)Nc2ccccc2)c1)NO [BELINOSTAT]
[1]
  EC50: 2150 nM
  EC90: 4010 nM
[2]
  Cmax: 2140 nM
[8]
  Cmax: 101000 nM
[16]
  Cmax: 183000 nM
[3]
  AUC: 2700 ng·h/mL
[10]
  AUC: 9990 ng·h/mL
[17]
  AUC: 47500 ng·h/mL
[4]
  Tmax: 1.9 h
[12]
  Tmax: 0 h
[18]
  Tmax: 0.45 h
[5]
  half-life: 1.5 h
[14]
  half-life: 0.69 h
[19]
  half-life: 3.49 h
[20]
  Activity: inactive
[21]
  Activity: inactive

## Cn1cc(CNCC2CCN(c3ncc(C(=O)NO)cn3)CC2)c2ccccc21 [QUISINOSTAT]
[1]
  EC50: 29 nM
Histone deacetylase 5
  Ki: 2.1 nM
Histone deacetylase 9
  Ki: 3.8 nM
[22]
  Ki: 0.05 nM
[2]
  Cmax: 3 nM
[3]
  AUC: 9.77 ng·h/mL
[4]
  Tmax: 4 h

## O=C(/C=C/C#Cc1ccc(NS(=O)(=O)c2ccccc2)cc1)NO [OXAMFLATIN]
[1]
  EC50: 4060 nM

## CC(/C=C/C(=O)NO)=C\[C@@H](C)C(=O)c1ccc(N(C)C)cc1 [TRICHOSTATIN]
[1]
  EC50: 5000 nM

## CCCCc1nc2cc(/C=C/C(=O)NO)ccc2n1CCN(CC)CC [PRACINOSTAT]
[1]
  EC50: 9550 nM
Histone deacetylase 11
  Ki: 43 nM
[2]
  Cmax: 497 nM
[3]
  AUC: 1030 ng·h/mL

## O=C(CCCCCCC(=O)Nc1ccc([C@H]2O[C@@H](CSc3nc(-c4ccccc4)c(-c4ccccc4)o3)C[C@@H](c3ccc(CO)cc3)O2)cc1)NO [TUBACIN]
[1]
  EC50: 3380 nM
Histone deacetylase 1
  Ki: 326 nM
Histone deacetylase 2
  Ki: 1180 nM
Histone deacetylase 5
  Ki: 1920 nM
Histone deacetylase 7
  Ki: 5430 nM

## O=C(/C=C/c1ccc(CN(CCO)CCc2c[nH]c3ccccc23)cc1)NO [DACINOSTAT]
[1]
  EC50: 2600 nM
[8]
  Cmax: 2170 nM
[10]
  AUC: 2310 ng·h/mL
[12]
  Tmax: 2 h
[14]
  half-life: 8.29 h

## CN(C)Cc1c(C(=O)NCCOc2ccc(C(=O)NO)cc2)oc2ccccc12 [ABEXINOSTAT]
[1]
  EC50: 8610 nM

## CC(C)(CCc1ccccc1)C(=O)Nc1ccc(C(=O)NO)cc1
[1]
  EC50: 6550 nM
